Drawing on ChEMBL document CHEMBL3259565 (ACS Med Chem Lett, 2014), this text covers inhibition and IC50 for five compounds.

The target of experiment [1] is T1, Histone-lysine N-methyltransferase EHMT1 (Homo sapiens) (UniProt Q9H9B1).
T1 sequence (whole entry): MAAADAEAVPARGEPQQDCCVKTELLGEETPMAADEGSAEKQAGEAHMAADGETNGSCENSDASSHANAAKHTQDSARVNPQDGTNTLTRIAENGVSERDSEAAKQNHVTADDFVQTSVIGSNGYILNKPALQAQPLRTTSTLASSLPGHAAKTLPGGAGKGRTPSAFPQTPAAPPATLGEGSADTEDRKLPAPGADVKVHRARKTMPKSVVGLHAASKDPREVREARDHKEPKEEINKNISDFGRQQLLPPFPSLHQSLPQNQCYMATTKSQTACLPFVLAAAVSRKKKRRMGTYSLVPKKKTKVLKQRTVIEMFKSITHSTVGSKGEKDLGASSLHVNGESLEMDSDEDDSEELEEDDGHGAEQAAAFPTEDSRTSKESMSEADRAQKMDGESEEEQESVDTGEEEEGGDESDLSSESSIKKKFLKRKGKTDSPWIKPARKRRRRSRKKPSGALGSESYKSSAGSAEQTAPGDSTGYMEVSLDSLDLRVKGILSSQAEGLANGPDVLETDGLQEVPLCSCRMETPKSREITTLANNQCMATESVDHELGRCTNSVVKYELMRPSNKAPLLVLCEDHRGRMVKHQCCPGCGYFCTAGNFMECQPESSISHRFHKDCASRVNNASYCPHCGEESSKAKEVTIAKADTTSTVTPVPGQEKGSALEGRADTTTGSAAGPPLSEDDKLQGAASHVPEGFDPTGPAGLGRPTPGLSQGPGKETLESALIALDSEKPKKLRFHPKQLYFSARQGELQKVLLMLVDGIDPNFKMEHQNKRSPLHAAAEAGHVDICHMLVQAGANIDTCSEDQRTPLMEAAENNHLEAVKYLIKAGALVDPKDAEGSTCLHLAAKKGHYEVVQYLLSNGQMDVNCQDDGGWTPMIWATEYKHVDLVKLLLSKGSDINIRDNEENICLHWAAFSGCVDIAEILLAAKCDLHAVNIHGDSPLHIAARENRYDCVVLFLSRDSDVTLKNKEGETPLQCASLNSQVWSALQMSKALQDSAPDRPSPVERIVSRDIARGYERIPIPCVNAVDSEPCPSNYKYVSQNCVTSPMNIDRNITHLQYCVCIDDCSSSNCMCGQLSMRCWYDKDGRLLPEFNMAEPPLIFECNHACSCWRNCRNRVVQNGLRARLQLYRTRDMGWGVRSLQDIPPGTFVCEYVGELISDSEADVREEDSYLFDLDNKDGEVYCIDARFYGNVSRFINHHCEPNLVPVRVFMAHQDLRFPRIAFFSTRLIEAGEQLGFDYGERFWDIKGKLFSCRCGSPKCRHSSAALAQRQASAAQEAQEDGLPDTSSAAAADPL
Briefly: Inhibition of methyltransferase activity of EHMT1 (unknown origin)-mediated dimethylation of a biotinylated histone H3 peptide at lysine-9 at 100 uM by FRET-based LANCE ultra G9a assay. In general terms: TR-FRET usually uses a lanthanide donor and a delayed reading to cut background.

Experiment [2] concerns the target T2, Histone-lysine N-methyltransferase EHMT1 (Homo sapiens, UniProt Q9H9B1).
T2 sequence (Q9H9B1 whole entry): T1 sequence (whole entry)
Briefly: Inhibition of methyltransferase activity of EHMT1 (unknown origin)-mediated dimethylation of a biotinylated histone H3 peptide at lysine-9 by FRET-based LANCE ultra G9a assay.

The target of experiment [3] is T3, Histone-lysine N-methyltransferase EHMT2 (Homo sapiens, UniProt Q96KQ7).
T3 sequence (Q96KQ7 whole entry): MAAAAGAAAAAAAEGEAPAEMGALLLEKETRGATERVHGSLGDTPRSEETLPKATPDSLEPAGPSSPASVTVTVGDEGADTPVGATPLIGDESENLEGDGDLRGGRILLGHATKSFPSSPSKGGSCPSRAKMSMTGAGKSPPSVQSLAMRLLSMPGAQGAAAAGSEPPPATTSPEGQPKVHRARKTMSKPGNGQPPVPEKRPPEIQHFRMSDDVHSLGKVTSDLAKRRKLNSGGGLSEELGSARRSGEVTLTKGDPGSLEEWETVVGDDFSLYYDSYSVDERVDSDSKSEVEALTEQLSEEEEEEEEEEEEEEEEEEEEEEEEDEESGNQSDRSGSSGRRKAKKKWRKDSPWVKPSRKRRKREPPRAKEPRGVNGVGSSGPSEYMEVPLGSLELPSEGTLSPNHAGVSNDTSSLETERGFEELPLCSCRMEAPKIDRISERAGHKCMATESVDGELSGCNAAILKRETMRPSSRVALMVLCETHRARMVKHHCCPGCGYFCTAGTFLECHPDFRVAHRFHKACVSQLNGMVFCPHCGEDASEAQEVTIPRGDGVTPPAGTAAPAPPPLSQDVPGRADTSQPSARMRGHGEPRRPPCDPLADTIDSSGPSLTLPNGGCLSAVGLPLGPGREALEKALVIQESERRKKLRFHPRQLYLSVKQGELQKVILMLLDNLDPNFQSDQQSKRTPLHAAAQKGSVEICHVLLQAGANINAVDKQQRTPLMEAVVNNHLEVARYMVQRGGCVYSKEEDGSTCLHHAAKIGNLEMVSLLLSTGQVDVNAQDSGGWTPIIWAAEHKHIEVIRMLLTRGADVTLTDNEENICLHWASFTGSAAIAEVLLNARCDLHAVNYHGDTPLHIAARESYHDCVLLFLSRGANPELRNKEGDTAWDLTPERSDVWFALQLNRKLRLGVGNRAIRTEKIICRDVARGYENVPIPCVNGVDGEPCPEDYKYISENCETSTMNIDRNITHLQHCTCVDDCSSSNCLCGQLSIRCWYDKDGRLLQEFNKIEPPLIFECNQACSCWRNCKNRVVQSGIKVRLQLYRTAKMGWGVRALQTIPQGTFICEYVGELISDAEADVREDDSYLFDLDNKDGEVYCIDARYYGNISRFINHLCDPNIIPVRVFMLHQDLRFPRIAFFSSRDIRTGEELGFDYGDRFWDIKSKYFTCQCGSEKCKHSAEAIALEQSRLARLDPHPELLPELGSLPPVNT
Briefly: Inhibition of methyltransferase activity of EHMT2 (unknown origin)-mediated dimethylation of a biotinylated histone H3 peptide at lysine-9 by FRET-based LANCE ultra G9a assay.

For experiment [4], the target named is T1, Histone-lysine N-methyltransferase EHMT1 (Homo sapiens). The experiment is described as follows: Non-competitive inhibition of methyltransferase activity of EHMT1 (unknown origin).
Experiment [5] concerns the target T4, Histone-lysine N-methyltransferase EHMT2 (Homo sapiens) (UniProt Q96KQ7).
T4 sequence (whole entry): T3 sequence (Q96KQ7 whole entry)
The experiment is described as follows: Non-competitive inhibition of methyltransferase activity of EHMT2 (unknown origin).

Experiment [6] deals with T5, DNA (cytosine-5)-methyltransferase 1 (Homo sapiens, UniProt P26358). Briefly: Inhibition of DNMT1 (unknown origin).
T5 sequence (P26358 whole entry): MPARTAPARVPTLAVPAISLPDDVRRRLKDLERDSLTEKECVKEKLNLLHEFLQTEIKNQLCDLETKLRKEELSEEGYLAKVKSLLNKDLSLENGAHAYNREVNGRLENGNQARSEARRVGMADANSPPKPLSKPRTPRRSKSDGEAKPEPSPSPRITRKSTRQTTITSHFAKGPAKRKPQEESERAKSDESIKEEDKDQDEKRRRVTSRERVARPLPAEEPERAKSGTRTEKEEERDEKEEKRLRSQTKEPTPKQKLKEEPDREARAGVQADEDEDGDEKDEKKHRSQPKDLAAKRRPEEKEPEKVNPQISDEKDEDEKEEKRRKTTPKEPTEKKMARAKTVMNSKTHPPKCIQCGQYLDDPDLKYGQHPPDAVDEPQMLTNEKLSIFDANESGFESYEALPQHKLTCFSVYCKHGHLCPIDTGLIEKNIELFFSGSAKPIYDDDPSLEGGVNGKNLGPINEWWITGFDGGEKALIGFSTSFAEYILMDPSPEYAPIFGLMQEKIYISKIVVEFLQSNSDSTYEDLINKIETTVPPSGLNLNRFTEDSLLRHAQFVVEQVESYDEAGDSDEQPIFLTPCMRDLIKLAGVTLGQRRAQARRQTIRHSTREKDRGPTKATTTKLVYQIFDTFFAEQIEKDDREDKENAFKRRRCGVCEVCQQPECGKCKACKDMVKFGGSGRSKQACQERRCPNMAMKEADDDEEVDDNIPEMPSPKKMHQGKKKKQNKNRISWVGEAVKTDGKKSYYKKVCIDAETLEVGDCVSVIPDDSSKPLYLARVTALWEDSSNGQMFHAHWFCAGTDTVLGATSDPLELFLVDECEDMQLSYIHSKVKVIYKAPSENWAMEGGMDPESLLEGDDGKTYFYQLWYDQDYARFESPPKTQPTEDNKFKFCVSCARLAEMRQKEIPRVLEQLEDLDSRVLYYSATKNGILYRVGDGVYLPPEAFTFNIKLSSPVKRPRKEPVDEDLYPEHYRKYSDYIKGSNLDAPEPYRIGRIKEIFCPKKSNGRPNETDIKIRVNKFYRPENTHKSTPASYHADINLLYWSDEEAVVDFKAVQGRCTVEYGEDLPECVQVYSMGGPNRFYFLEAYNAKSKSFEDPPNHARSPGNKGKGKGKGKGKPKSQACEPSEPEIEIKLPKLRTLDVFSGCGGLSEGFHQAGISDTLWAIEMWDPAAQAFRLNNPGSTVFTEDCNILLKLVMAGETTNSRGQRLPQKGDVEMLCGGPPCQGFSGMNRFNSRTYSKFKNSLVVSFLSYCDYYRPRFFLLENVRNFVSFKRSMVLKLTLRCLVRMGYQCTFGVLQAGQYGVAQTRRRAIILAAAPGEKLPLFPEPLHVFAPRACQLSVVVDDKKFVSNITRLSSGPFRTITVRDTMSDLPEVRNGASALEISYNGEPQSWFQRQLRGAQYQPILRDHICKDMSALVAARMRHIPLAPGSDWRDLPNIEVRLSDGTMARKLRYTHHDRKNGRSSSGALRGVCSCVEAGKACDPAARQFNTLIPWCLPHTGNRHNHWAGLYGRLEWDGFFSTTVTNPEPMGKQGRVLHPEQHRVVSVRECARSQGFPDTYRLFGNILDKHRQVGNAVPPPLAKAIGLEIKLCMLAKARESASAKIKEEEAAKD
Experiment [7] addresses Protein arginine N-methyltransferase 1 (Homo sapiens) (UniProt Q99873). The experiment is described as follows: Inhibition of PRMT1 (unknown origin) at 200 uM.
Experiment [8] deals with T6, Histone-lysine N-methyltransferase SETD7 (Homo sapiens) (UniProt Q8WTS6).
T6 sequence (whole entry): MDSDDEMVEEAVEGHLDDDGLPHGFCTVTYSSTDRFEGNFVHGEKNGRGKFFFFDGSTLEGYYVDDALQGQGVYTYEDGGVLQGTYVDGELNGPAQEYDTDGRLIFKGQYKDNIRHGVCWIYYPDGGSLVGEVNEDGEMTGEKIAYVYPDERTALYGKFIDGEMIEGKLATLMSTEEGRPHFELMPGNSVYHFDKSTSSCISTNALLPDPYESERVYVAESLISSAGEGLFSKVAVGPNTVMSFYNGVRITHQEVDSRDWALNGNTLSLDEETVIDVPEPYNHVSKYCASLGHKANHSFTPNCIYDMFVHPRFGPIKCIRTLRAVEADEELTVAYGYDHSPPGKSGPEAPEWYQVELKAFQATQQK
The experiment is described as follows: Inhibition of SET7/9 (unknown origin) at 200 uM.

Experiment [9] addresses T5, DNA (cytosine-5)-methyltransferase 1. Briefly: Inhibition of DNMT1 (unknown origin) at 200 uM.

Active and inactive are the calls of the source. The rule behind the calls is not given here.

Sequence of Protein arginine N-methyltransferase 1 (Homo sapiens) (Q99873 whole entry, looked up): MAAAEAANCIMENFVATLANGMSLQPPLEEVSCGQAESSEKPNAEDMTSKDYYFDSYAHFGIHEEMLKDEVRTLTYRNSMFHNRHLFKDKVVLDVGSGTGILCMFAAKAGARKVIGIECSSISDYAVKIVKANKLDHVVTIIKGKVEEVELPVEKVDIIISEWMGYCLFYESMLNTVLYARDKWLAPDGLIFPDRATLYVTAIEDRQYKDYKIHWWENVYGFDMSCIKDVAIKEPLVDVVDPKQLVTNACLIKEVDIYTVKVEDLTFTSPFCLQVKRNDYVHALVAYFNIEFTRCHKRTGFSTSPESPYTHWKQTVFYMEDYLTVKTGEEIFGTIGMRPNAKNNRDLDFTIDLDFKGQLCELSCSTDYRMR

Usually inhibition stands for the change of the read-out against control, counted positive when it falls. Broadly, the IC50 is the concentration that inhibits the measured activity by half. The compound `COc1ccc(CC(N)C[C@H]2O[C@@H](n3cnc4c(N)ncnc43)[C@H](O)[C@@H]2O)cc1OC` (stereo partly drawn) gave an inhibition in experiment [1] above 40%. The figures for the IC50 in experiment [2] and in experiment [3] were 147 µM and 157 µM, respectively.

In experiment [2], `Nc1ncnc2c1ncn2[C@@H]1O[C@H](C[C@@H](N)CC[C@H](N)C(=O)O)[C@@H](O)[C@H]1O` [SINEFUNGIN] came in with an IC50 of 513 µM.

As to `Nc1ncnc2c1ncn2[C@@H]1O[C@H](CCCc2ccccc2)[C@@H](O)[C@H]1O`, the inhibition in [1] was above 40%. The IC50 in [2] turned out to be 235 µM; in [3], 190 µM.

Take `Nc1ncnc2c1ncn2[C@@H]1O[C@H](CC(N)CC2CCCCC2)[C@@H](O)[C@H]1O` (stereo partly drawn): the inhibition in [1] is above 40%. Moreover, the results for the IC50 in experiment [2], in [3] and in [6] were 1.5 µM, 1.6 µM and 179 µM, respectively. The inhibition result in experiment [4] and in [5] was “Active” throughout. For the same compound, the inhibition result in [7] and in [8] was “inactive” each time.

The compound `CCCCC[C@H]1O[C@@H](n2cnc3c(N)ncnc32)[C@H](O)[C@@H]1O` came in with an inhibition in experiment [1] above 40%. The concentration for half-maximal inhibition (IC50) in experiment [2] is 87 µM; in [3], 103 µM. Further, the inhibition entry in experiment [4] and in experiment [5] was “Active” in each case. In addition, the inhibition entry in experiment [9], in experiment [7] and in [8] was “inactive” each time.
